Experimental data reported in patent publication EP4007561B1, “PREVENTION AND REDUCTION OF CORNIFICATION DISORDERS AND RELATED COSMETIC AGENTS” (Merck Patent GmbH, priority 2019, dated 2021).
Values joined by “and” are separate entries in the source; they are usually repeats but may differ in a detail not shown here. Equal entries are not always repeated.

Key:
Format in all cases: cell-based, human
LAMP2A = test: Fluorescence imaging (immunostaining) of protein expression on skin explants ex vivo; details: ectoine 0.2% w/v; basal conditions (without UV-A); Figure 3
Experimental: (§1) To evidence changes at the expression level of a selected pool of proteins on skin explants (ex vivo), treated or not with ectoine 0.2% (source Merck KGaA. Darmstadt, Germany) and exposed or not to UV-A irradiation: At day 0 (D0), the skin explants from a donor (phototype III, ref. EXP001100F022) are kept alive in calcium-free DMEM (Dulbecco's modified Eagle medium), with 10% FCS (Fetal calf serum), at 37°C and humid atmosphere, supplemented with 5% CO2. On day 1 (D1), ectoine 0.2% w/v) is obtained by dilution in H2O. The experimental groups are incubated for 24 hours with the active prior to irradiation.
(§2) On day 2 (D2), a stress induced by irradiation with UV-A (LED source, peak at 365 nm at a 480J/cm^2 during 40 minutes) is applied to the explants.
(§3) Skin explants are previously treated or not with ectoine and irradiated or not with UV-A, cryo-preserved in OCT (an embedding resin (Shandon Cryomatrix; Thermo Scientific, Reference 6769006)), flash-frozen in isopetan/liquid nitrogen and stored at -80 °C.
(§4) Tissue sections of 5 µm are cut by using a cryotome, air-dried at room temperature (RT) for 15 minutes and fixed with a mix of 95% ethanol/5% acetic acid for 5 minutes. Fixed tissues are then saturated with 5% BSA (bovine serum albumin) in PBS (Phosphate Buffered Saline; 1X, pH 7.4) at RT. […]

Filaggrin = test: as above; details: ectoine 0.2% w/v, 24 hours prior to UV-A irradiation (365 nm, 480J/cm^2, 40 minutes); Figure 2
Experimental: as §1, §2, §3, §4

skin explants = test: Protein oxidation (carbonylation) by differential in-gel electrophoresis proteomics, unidentified spots and overall spot pattern; details: for Average normalized volume (oxidation level): UV-A + Ectoine 0.2%, UV-A 365 nm, 480J/cm2, 40 min
Experimental: To assess and quantify protein oxidation (carbonylation) by differential in-gel electrophoresis proteomics approach evidencing differentially oxidized protein spots upon UV-A (365 nm) irradiation on skin explants in the presence or absence of ectoine (0,2%) (source Merck KGaA, Darmstadt, Germany).
During the study human explants are irradiated under UVA (LED source; sources and chamber manufactured for custom needs by UWAVE;France, peak at 365nm at a 480J/cm2 dose during 40 min). A solution of N-acetylcysteine (Reference A7250, Sigma-Aldrich) is used as positive control of protection. Just after irradiation, explants are snap-frozen and proteins extracted for analyses.
Protein extraction from explants is performed using a commercial kit (Total Protein Extraction Kit, Merck KGaA) protocol for skin explants. Extracted proteins are quantified by the Bradford method and split into equal amounts for analyses. The samples are analyzed for carbonylated proteins after they are labeled with fluorescent probes functionalized to selectively react with carbonyl groups. The fluorescent labeling of carbonyls is obtained by the reaction with amine-N-oxyl functionalized fluorophore (custom synthetized) and formation of a stable covalent bond.
Thus, the samples are labeled with two different fluorescent dyes characterized by different excitation and emission wavelength peaks: CF®555 (Source :Biotium) is a red fluorescent dye spectrally similar to Cy3® and Alexa Fluor® 555 (λex547nm/λem572nm) and CF®647 (Source: Biotium) CF®647is a far-red fluorescent dye spectrally similar to Cy®5 and Alexa Fluor® 647 (λex639nm/λem668nm). This approach allows to load two distinct labeled samples in the same bi-dimensional electrophoresis gel and to analyze them independently.
Moreover, 50 µg of proteins of each sample are pooled and labeled a third fluorescent probe CF®488 (Source: Biotium) (λex483nm/λem508nm). CF®488 is a green fluorescent dye spectrally similar to Alexa Fluor® 488. CF®488 is and used as Internal Standard (IS) for inter-gel normalization. After specific fluorescent labeling, carbonylated proteins are separated by bi-dimensional electrophoresis and the fluorescence images are obtained for each specifically labeled sample.
The first dimension of protein separation (isoelectric focusing) is performed using gel-strips with nonlinear pH 3 to 11 while the second step of electrophoresis separation is conducted by SDS-PAGE using 4%-20% w/v gradient polyacrylamide gels. The digital acquisition of gel images is performed by using the «Ettan DIGE imager» system (GE Healthcare). Data treatment is performed with the software «Progenesis SameSpots» (Nonlinear Dynamics, UK).
Carbonylated proteins are presented as superposed images of two independent fluorescent signals (in green or red) and the coincident proteins with equivalent intensity result in yellow spots by superposition of the two dye colors used for their labeling (superposition of green and red colors). The carbonylated proteins that are present in a different level in the two samples on gel are visualized as red or green spots depending by the experimental group as independent labeling of each sample.
More than 200 spots are detected per sample, with an increase in number and intensity in the samples of the irradiated group (UV-A). These spots are localized between 37 kDa and 75 kDa. The fluorescence signal of each spot is normalized over the internal standard spot signal for each gel. The alignment of spots from different gels and the analysis of variance of their carbonylation levels in different samples and in different groups are performed by using the software Progenesis Samespots.

## CC1=N[C@H](C(=O)O)CCN1 [Ectoine, (S)-1,4,5,6-tetrahydro-2-methyl-4-pyrimidincarboxylic acid]
LAMP2A
  LAMP2A expression: increases LAMP2A expression
Filaggrin
  Filaggrin expression level: prevents this decrease of Filaggrin
Skin explants; Spot 100 (protein not identified), n=4
  Average normalized volume (oxidation level): → 1.129
Skin explants; Spot 203 (protein not identified), n=4
  Average normalized volume (oxidation level): → 1.062
Skin explants; Spot 230 (protein not identified), n=4
  Average normalized volume (oxidation level): → 1.433
Skin explants; basal conditions, no UV-A, spots different from those protected from UV-A stress (except spot 100)
  level of oxidation of protein spots in the absence of irradiation: decreases the level of oxidation of ten protein spots
Skin explants; ectoine 0.2%, UV-A irradiation, n=4
  protein carbonylation after ectoine treatment, spots 100, 230, 203: carbonylation is not reduced
Skin explants; ectoine 0.2%, of 8 spots increased by UV-A, spots 186, 133, 184, 185, 206, n=4
  protection of protein spots from UV-A induced oxidation (carbonylation): five spots are detected as protected and 5 proteins exhibit reduced protein carbonylation and prevents protein carbonylation significantly
